From patent publication US20080267948A1, “Croos-B Structure Binding Compounds” (priority 2005, published 2008)
Entries after “also recorded” stand apart in the source; their conditions may differ.

How the values were obtained:
Hb-AGE = biological target: T1, Hb-AGE (Homo sapiens, UniProt P68871+P69905); experiment: ELISA binding of tPA to immobilized Hb-AGE after pre-incubation with compounds; settings: then tPA; for influence on tPA binding to immobilized Hb-AGE: Hb-AGE first overlayed with compound (concentration series); for % tPA binding (after compound incubation), HbAGE: immobilized Hb-AGE first exposed to 500 μg/ml compound, control = 100
T1 construct: purchased Sigma-Aldrich H7379
T1 sequence (P69905 2-142 limits assumed): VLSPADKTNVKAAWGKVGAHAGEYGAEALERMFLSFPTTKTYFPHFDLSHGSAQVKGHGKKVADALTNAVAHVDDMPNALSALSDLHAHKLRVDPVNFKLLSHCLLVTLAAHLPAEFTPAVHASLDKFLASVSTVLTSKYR
T1 sequence (P68871 2-147 limits assumed): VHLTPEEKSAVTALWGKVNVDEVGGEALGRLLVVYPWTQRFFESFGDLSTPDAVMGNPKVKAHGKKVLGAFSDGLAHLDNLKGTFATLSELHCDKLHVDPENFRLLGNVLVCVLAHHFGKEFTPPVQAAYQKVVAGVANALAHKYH
Procedure: Compounds were now diluted 10× in PBS/0.1% Tween20 (500 μg/ml compound). […] With the selection, similar binding assays are performed with misfolded OVA and Aβ. Finally, concentration series of the selected compounds are used in the binding studies.

amyloid-β(1-40) E22Q = biological target: T2, amyloid-β(1-40) E22Q (Homo sapiens, UniProt P05067, E693Q); experiment: ELISA binding of tPA to immobilized Aβ after pre-incubation with compounds; settings: for % tPA binding (after compound incubation), Aβ: 1 μg/ml coated Aβ first exposed to 500 μg/ml compound, then 80 nM tPA, control = 100; for influence on tPA binding to immobilized Aβ: Aβ first overlayed with compound (concentration series), then tPA
T2 construct: For similar ELISA's with DOVA and Aβ(1-40) E22Q, 1 μg/ml DOVA or Aβ was coated; purchased Peptide facility, Dutch Cancer Institute, Amsterdam; host or cells: synthetic peptide
T2 sequence (P05067 672-711 E693Q): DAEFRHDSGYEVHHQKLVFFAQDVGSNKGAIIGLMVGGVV
Procedure: (§1) Compounds were now diluted 10× in PBS/0.1% Tween20 (500 μg/ml compound). […] With this approach a further selection of the compounds was achieved. Now, compounds that at least interact with HB-AGE are selected. With the selection, similar binding assays are performed with misfolded OVA and Aβ. Finally, concentration series of the selected compounds are used in the binding studies.

[1] = biological target: T3, heat-denatured misfolded ovalbumin (DOVA) (Gallus gallus, UniProt P01012); experiment: ELISA binding of tPA to immobilized misfolded ovalbumin after pre-incubation with compounds; design: species or system chicken; settings: for activity at 500 µg/mL: read-out: % tPA binding (after compound incubation), DOVA; for influence on tPA binding to immobilized misfolded OVA: misfolded OVA first overlayed with compound (concentration series), then tPA
T3 construct: purchased Sigma A5503
T3 sequence (P01012 2-386 limits assumed): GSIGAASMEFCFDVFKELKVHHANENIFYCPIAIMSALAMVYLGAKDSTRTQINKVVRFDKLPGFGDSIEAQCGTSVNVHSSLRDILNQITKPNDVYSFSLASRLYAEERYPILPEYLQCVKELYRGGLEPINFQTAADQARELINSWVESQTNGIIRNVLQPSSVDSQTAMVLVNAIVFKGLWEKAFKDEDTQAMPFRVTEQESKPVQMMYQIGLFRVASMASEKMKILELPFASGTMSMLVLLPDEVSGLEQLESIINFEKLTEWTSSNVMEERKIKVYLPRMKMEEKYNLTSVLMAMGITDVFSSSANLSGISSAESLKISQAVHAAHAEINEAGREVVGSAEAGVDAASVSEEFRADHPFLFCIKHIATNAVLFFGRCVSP
Procedure: as §1

heat-denatured ovalbumin = biological target: T4, heat-denatured ovalbumin (Gallus gallus, UniProt P01012); experiment: Thioflavin T fluorescence of ovalbumin and small compounds; design: species or system chicken
T4 construct: purchased Sigma A5503
T4 sequence (P01012 1-386): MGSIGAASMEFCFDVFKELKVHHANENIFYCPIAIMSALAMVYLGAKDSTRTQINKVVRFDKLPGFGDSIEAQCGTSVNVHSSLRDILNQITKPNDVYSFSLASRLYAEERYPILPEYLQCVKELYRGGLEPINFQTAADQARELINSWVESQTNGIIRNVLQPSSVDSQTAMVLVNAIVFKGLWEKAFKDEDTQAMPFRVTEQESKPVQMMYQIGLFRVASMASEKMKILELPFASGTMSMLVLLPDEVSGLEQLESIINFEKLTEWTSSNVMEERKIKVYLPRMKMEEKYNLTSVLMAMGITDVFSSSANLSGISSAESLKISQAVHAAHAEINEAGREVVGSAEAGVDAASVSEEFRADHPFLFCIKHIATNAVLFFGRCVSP
Summary of the method: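 Heat-denatured ovalbumin at 1 mg/ml in PBS, alone, with 1% v/v DMSO or with 1 mg/ml compound (also heat-denatured after compound addition), mixed 1:9 with 25 μM ThT in 50 mM glycine pH 9.0. Fluorescence read in duplicate at 435 nm excitation, 485 nm emission.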

[2] = system: misfolded proteins (Hb-AGE, Aβ); experiment: Binding of misfolded proteins from solution to immobilized small compounds (overall); settings: compounds coated on ELISA plates, Hb-AGE or Aβ in solution
Procedure: To test the ability of the twelve selected compounds (see Table 7) to bind to misfolded proteins, the compounds were immobilized at 10/100/1000 μg/ml in the wells of 96-wells Greiner Microlon high binding plates, Nunc amino Immobilizer plates and Nunc Maxisorp plates. Compounds were coated in 100 mM NaHCO3 pH 9.6, 50 μl/well, 1 h at room temperature with agitation. As a control, wells were coated with buffer only. After blocking of the plates, wells were overlayed with solutions of 0.1/1/10 μg/ml Hb-AGE or 10/100 μg/ml Aβ, in binding buffer (PBS/0.1% Tween20). After washing, binding of Hb-AGE was assessed by overlaying wells with 1 μg/ml hybridoma antibody 4B5, which binds to glycations(^2), followed by RAMPO. Binding of Aβ was visualized using 500× diluted anti-Aβ antibodies (mouse antibody beta-amyloid Clone 6F/3D #M0872, lot 00003503, DAKOCytomation; β-amyloid (H-43) SC-9129, 200 μg/ml rabbit polyclonal IgG, Santa Cruz Biotechnology) and RAMPO/SWARPO in a 1:1 ratio. Finally, wells were overlayed with OPD/H2O2 solution, and H2SO4, before absorbance readings at 490 nm.

ovalbumin = biological target: T5, ovalbumin (Gallus gallus, UniProt P01012); experiment: Transmission electron microscopy of ovalbumin heated in the presence of small compounds; design: species or system chicken; settings: 1 mg/ml ovalbumin heated with 1 mg/ml compound
T5 construct: purchased Sigma A5503
T5 sequence (P01012 1-386): T4 sequence (P01012 1-386)
Summary of the method: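 Ovalbumin at 1 mg/ml was applied to carbon-coated Formvar copper grids, washed with PBS and water, then stained 2 min in 2% methylcellulose with 0.4% uranyl acetate, pH 4. Grids were dried and imaged by TEM at 80 kV.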

Row | Structure (SMILES) | influence on tPA binding to immobilized Hb-AGE (Hb-AGE) | % tPA binding (after compound incubation), HbAGE (Hb-AGE) [%] | % tPA binding (after compound incubation), Aβ (amyloid-β(1-40) E22Q) [%] | activity at 500 µg/mL [1] [%] | influence on Thioflavin T fluorescence with misfolded OVA (heat-denatured ovalbumin; 1 mg/ml compound, 1 mg/ml OVA) | capture of misfolded protein from solution by immobilized compound [2] | appearance of ovalbumin heated in the presence of compound on TEM image (ovalbumin) | influence on tPA binding to immobilized Aβ (amyloid-β(1-40) E22Q) | influence on tPA binding to immobilized misfolded OVA [1] | reduction in Thioflavin T fluorescence enhancement, compound and OVA heated together (heat-denatured ovalbumin; 1 mg/ml compound, 1 mg/ml OVA, PBS/1% DMSO) [%] | inhibition at 1000 µg/mL (heat-denatured ovalbumin; 1 mg/ml compound, 1 mg/ml OVA, PBS/1% DMSO, read-out: inhibition of Thioflavin T fluorescence, compound mixed with pre-formed misfolded OVA) [%] | formation of Thioflavin T binding sites in heated OVA (heat-denatured ovalbumin; OVA and compound heated together) | appearance of ovalbumin heated in the presence of compound on TEM image (ovalbumin; hydrate)
1 | COc1cc2c(cc1OC)-c1c(O)c(OC)cc3c1[C@H](C2)N(C)CC3 [compound 201, Thaliporphine, thalicmidine] | Stimulated tPA binding to immobilized misfolded protein (Hb- | 110 | 400 | 400 | Inhibition of Thioflavin T fluorescence with misfolded OVA | Capture of misfolded protein from solution | Spherical aggregates with background of smaller | – | – | – | – | – | –
2 | O=c1oc2c(O)c(O)cc3c(=O)oc4c(O)c(O)cc1c4c23 [compound 117, Ellagic acid hydrate] | Stimulated tPA binding to immobilized misfolded protein (Hb- | – | – | – | Inhibition on Thioflavin T fluorescence with misfolded OVA | Capture of misfolded protein from solution | – | Stimulated tPA binding to immobilized misfolded protein (Hb- | Stimulated tPA binding to immobilized misfolded protein (Hb- | 90 | ~50 | Inhibition of formation of Thioflavin T binding sites in heated | less OVA aggregates after heating in the presence of the; also recorded: Clusters of needle-like structures. No aggregates
3 | COc1cc2c(cc1O)C[C@H]1c3c(cc(OC)c(O)c3-2)CCN1C [compound 202, Isoboldine] | Stimulated tPA binding to immobilized misfolded protein (Aβ, | 250 | 250 | 420 | Inhibition on Thioflavin T fluorescence with misfolded OVA | Capture of misfolded protein from solution | Larger and more dense aggregates than control. Small | Stimulated tPA binding to immobilized misfolded protein (Aβ, | Stimulated tPA binding to immobilized misfolded protein (Aβ, | – | – | – | –
